Experimental data reported in article PMC4317581, “Virtual Screening of Acetylcholinesterase Inhibitors Using the Lipinski's Rule of Five and ZINC Databank” (BioMed Research International, 2015).
Read-outs that look alike come from different tables or passages of the source.

Assays:
Format in all cases: biochemical
[1] = target: T1, AChE from Danio rerio (DrAChE) (Danio rerio, UniProt Q9DDE3); experiment: Ellman cholinesterase assay, zebrafish brain homogenate AChE
T1 construct: zebrafish brains were homogenized on ice in 60 volumes (v/w) of Tris-citrate buffer; from tissue; host or cells: zebrafish brain homogenate
T1 sequence (Q9DDE3 24-634): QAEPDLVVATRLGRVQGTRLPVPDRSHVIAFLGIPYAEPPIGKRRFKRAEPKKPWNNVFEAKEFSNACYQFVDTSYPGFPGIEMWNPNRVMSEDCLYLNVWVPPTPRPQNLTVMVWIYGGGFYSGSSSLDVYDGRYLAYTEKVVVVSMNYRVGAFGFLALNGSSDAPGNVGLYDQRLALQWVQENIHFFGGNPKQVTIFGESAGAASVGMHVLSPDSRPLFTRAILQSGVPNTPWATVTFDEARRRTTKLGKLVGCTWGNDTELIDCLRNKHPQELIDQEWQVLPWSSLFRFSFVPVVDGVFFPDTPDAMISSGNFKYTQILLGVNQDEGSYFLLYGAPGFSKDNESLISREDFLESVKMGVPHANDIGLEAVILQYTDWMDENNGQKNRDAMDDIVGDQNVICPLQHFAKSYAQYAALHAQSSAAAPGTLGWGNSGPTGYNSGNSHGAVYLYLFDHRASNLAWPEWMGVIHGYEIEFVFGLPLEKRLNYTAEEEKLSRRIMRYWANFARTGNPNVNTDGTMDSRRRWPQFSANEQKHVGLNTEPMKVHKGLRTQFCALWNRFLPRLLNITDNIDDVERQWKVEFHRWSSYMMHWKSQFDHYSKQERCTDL
Description: (§1) The compounds selected as inhibitors of AChE activity were obtained commercially from MolPort (http://www.molport.com/buy-chemicals/index). They were dissolved in dimethyl sulfoxide (DMSO), at a final concentration of 0.1%.
(§2) The cholinesterase activities were measured based on Ellman et al.'s method. The increase of absorbance was monitored at 412 nm in a reaction mixture containing 10 mM potassium phosphate buffer, pH 7.4, and 1 mM DTNB [5,5′-dithiobis-(2-nitrobenzoic) acid] (from Sigma) in the presence of one of the following enzymes: purified AChE from Electrophorus electricus (EeAChE)—0.05 U/ml, AChE from human erythrocytes (HsAChE), AChE from Danio rerio (DrAChE)—0.5 μg, and purified BChE from Equus ferus (EfBChE)—0.05 U/mL. The compounds (or only 0.1% DMSO for the control group) were preincubated with the enzyme during 10 minutes at room temperature, and the reaction was started with the addition of acetylthiocholine or butyrylthiocholine (0.8 mM).
The DrAChE assay was performed as previously described by Rosemberg et al. (2010). Briefly, zebrafish brains were homogenized on ice in 60 volumes (v/w) of Tris-citrate buffer (50 mM Tris, 2 mM EDTA, 2 mM EGTA, and pH 7.4, with citric acid) using a Potter-Elvehjem-type glass homogenizer. Samples (0.5 μg protein) were preincubated for 10 min at 25°C and the enzyme activity was further assessed in the absence and the presence of the selected compounds.
(§3) The IC50 values were determined by nonlinear regression (log concentration-inhibition curves). Data were analyzed by one-way analysis of variance (ANOVA) followed by Student-Newman-Keuls test. Statistical significance was set at P < 0.05. The statistics have been performed using GraphPad Prism 5 (version 5.01, GraphPad Software, Inc., USA).

[2] = target: BChE from Equus ferus (EfBChE) (Equus caballus, UniProt P81908); experiment: Ellman cholinesterase assay, purified BChE from Equus ferus
BChE from Equus ferus (EfBChE), sequence (P81908 whole entry): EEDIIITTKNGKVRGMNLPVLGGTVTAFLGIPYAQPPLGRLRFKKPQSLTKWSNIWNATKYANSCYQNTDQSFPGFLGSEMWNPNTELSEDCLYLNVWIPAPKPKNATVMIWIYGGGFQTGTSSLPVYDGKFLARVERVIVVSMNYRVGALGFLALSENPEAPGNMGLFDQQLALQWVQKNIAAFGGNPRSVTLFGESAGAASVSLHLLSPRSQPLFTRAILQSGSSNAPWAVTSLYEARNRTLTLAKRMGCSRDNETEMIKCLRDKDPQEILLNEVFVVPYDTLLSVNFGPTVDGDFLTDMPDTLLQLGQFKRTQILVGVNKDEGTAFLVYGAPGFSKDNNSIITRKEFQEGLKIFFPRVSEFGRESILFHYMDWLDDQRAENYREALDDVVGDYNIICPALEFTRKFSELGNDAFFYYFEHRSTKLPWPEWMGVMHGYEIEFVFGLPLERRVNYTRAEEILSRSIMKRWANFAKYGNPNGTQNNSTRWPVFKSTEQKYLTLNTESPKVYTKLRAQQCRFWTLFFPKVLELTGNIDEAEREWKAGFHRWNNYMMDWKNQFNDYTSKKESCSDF
Description: as §1, §2, §3

[3] = target: AChE from Electrophorus electricus (EeAChE) (Electrophorus electricus, UniProt O42275); experiment: Ellman cholinesterase assay, purified AChE from Electrophorus electricus
AChE from Electrophorus electricus (EeAChE), sequence (O42275 24-633): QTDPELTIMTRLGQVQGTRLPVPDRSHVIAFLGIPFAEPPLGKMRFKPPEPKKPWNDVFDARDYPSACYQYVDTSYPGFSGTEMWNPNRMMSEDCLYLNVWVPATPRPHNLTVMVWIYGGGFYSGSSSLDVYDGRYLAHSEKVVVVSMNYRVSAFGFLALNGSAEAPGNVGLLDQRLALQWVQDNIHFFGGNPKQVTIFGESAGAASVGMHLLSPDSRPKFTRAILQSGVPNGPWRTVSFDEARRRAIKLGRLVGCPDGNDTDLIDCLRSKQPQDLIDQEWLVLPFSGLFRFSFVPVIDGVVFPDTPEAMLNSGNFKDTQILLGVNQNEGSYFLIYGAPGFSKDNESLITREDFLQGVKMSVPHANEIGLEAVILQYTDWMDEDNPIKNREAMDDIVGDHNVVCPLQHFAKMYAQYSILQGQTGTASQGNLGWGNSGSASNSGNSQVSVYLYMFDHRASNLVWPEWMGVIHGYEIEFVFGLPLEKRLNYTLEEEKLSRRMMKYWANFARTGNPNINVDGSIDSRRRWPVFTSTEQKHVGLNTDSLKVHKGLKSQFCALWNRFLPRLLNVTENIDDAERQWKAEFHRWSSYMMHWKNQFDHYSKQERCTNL
Description: as §1, §2, §3

[4] = target: T2, AChE from human erythrocytes (HsAChE) (Homo sapiens, UniProt P22303); experiment: Ellman cholinesterase assay, human erythrocyte ghost AChE
T2 construct: from tissue; host or cells: human erythrocyte ghosts from blood of healthy donors
T2 sequence (P22303 other isoform, or with tags, fused parts or gaps): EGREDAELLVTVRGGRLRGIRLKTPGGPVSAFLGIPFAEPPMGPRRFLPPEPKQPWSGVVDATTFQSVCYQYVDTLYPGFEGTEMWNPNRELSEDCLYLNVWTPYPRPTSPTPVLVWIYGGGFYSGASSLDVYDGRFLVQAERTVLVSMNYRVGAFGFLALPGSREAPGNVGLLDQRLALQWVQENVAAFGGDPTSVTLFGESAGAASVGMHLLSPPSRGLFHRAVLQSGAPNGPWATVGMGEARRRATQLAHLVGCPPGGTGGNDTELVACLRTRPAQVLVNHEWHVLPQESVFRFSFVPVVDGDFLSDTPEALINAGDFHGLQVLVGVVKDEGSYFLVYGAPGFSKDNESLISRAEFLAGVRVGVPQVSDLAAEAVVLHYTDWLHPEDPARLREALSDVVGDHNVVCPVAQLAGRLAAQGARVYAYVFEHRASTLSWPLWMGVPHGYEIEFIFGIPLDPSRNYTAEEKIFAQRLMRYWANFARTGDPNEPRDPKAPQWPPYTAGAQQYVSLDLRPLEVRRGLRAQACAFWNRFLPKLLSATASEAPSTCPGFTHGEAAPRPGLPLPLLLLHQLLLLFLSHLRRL
Description: as §1, §2
Haemoglobin-free erythrocyte ghosts were prepared according to the method previously described. Blood of nonfasted healthy voluntary donors was collected. Heparinized human blood was centrifuged at 3000 g for 10 min. The packed erythrocytes were diluted in 20 volumes (w/v) of hypotonic sodium/potassium phosphate buffer (6.7 mM, pH 7.4) to facilitate the hemolysis, followed by centrifugation at 30.000 g for 30 min at 4°C. The supernatant was removed and the pellet resuspended in hypotonic phosphate buffer. After two additional washing cycles, the pellet was resuspended in sodium/potassium phosphate buffer (0.1 M, pH 7.4) and then centrifuged again at 30.000 g for 30 min at 4°C. The supernatant was gently removed and the pellet was stored. Aliquots of the erythrocyte ghosts were stored at −20°C until usage within one week. The sample was diluted 10 times for AChE activity measurement. Fifty μL of the stored ghost preparation, in a final volume of 200 μL, was used for the assay. Hemoglobin content from ghost membranes was measured at 540 nm as the cyano-met-Hb form, but no hemoglobin was detected.
as §3

[5] = zebrafish brain homogenate 0.5 μg protein, 10 min preincubation, read-out: IC50 DrAChE
[6] = purified BChE 0.05 U/mL, 10 min preincubation, butyrylthiocholine 0.8 mM, read-out: IC50 EcBChE
[7] = purified EeAChE 0.05 U/ml, 10 min preincubation, acetylthiocholine 0.8 mM, read-out: IC50 EeAChE
[8] = human erythrocyte ghosts, 10 min preincubation, read-out: IC50 HsAChE

SMILES: C[N+]1(C)CCC2(CC1)Oc1ccccc1C1CC(c3ccc4ccccc4c3)=NN12 (stereo not shown) [G]
- IC50 [1]: 49.8 ± 15.3 µM
- IC50 [2]: 9.51 ± 6.94 µM
- IC50 [3]: 344 ± 50.7 µM
- IC50 [4]: 70 ± 7.96 µM

SMILES: O=c1ccc2ccc(OCC[N+]34CCC(CC3)C(C(O)(c3ccccc3)c3ccccc3)C4)cc2o1 (stereo not shown) [A]
- IC50 [1]: 26.2 ± 3.98 µM
- IC50 [2]: 22.2 ± 1.06 µM
- IC50 [3]: 36.3 ± 3.14 µM
- IC50 [4]: 13.2 ± 1.38 µM

SMILES: C[N+]1(Cc2ccc(-c3nnc(-c4ccc([N+](=O)[O-])cc4)o3)cc2)CCc2[nH]c3ccccc3c2C1 (stereo not shown) [Compound D]
- IC50 [1, 5]: 2.31 ± 0.29 µM
- IC50 [2, 6]: 5.64 ± 2.47 µM
- IC50 [3, 7]: 5.39 ± 0.55 µM
- IC50 [4, 8]: 1.69 ± 0.46 µM

SMILES: C[N+]1(C)CCC2(CC1)Oc1ccccc1C1CC(c3ccc(-c4ccccc4)cc3)=NN12 (stereo not shown) [F]
- IC50 [1]: 192 ± 29.8 µM
- IC50 [2]: 32.9 ± 3.88 µM
- IC50 [3]: 84.2 ± 6 µM
- IC50 [4]: 151 ± 61.7 µM

SMILES: COc1c2c(cc3c1[C@H](CC(=O)c1cc4c(cc1C)C(C)(C)[C@@H](C)C4(C)C)[N+](C)(C)CC3)OCO2 [B]
- IC50 [1, 5]: 21.2 ± 1.44 µM
- IC50 [2, 6]: 4.02 ± 0.78 µM
- IC50 [3, 7]: 578 ± 84.3 µM
- IC50 [4, 8]: 37.5 ± 1.97 µM

SMILES: c1ccc(-c2c3c(cc4ccccc24)C[N+]2(CCCC2)C3)cc1 [Compound E]
- IC50 [1, 5]: 26.4 ± 5.3 µM
- IC50 [2, 6]: 12.7 ± 7.66 µM
- IC50 [3, 7]: 342 ± 54.6 µM
- IC50 [4, 8]: 512 ± 301 µM

SMILES: CCCC[N+]1(CC#CC2(O)c3ccccc3-c3ccccc32)CCC(c2ccccc2)C1 (stereo not shown) [C]
- IC50 [1, 5]: 239 ± 2.95 µM
- IC50 [2, 6]: 0.75 ± 0.18 µM
- IC50 [3, 7]: 761 ± 128 µM
- IC50 [4, 8]: 92.1 ± 39.7 µM
